# Experimental data from PMC9045388, “Identification of a KPC Variant Conferring Resistance to Ceftazidime-Avibactam from ST11 Carbapenem-Resistant Klebsiella pneumoniae Strains” (Microbiology Spectrum, 2022).
# Molecular target: T1, KPC-2 (Klebsiella pneumoniae, UniProt Q9F663)
# T1 construct: untagged, full gene in pCR-BluntII-Topo (pTOPO-KPC-2), expressed in E. coli TOP10; ion exchange and gel filtration
# Test: steady-state hydrolysis, UV-Vis at […] nm
# Format: biochemical
# Details: 100 mM sodium phosphate, pH 7.0
# T1 sequence (Q9F663 25-293 limits assumed): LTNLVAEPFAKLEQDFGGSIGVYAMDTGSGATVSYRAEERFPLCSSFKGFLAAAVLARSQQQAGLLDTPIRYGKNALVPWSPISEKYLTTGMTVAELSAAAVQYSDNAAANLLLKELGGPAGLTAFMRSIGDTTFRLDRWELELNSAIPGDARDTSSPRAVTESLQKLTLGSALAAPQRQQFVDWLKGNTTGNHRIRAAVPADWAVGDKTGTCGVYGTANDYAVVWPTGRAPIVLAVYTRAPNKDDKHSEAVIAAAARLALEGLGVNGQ
structure (smiles),measurement,value
O=C(Cc1cccs1)N[C@@H]1C(=O)N2C(C(=O)O)=C(/C=C/c3ccc([N+](=O)[O-])cc3[N+](=O)[O-])CS[C@H]12 [nitrocefin],Km,17.9 µM
